{"source": "patent US20240016871A1", "about": "“Non-toxic furocoumarin-rich plant extracts and related compositions for use as antimicrobial substance or medicament and other therapeutic uses” (ICE-P LIFE, S.L., priority 2020, published 2024)", "origin": "cited, not measured here", "key": {"p53 knockout mouse": {"system": "p53 knockout mouse", "conditions": "platelets treated with amotosalen, after filtration and removal of amotosalen conjugated with pathogens"}, "DBA/2 strain mice": {"system": "DBA/2 strain mice", "conditions": "single oral doses"}}, "data": [{"smiles": "Cc1oc2c(C)c3oc(=O)cc(C)c3cc2c1COCCN.Cl", "note": "[amotosalen, amotosalen HCl]", "values": [{"measurement": "carcinogenicity", "setting": "p53 knockout mouse", "value": "non-carcinogenic"}]}, {"smiles": "O=c1ccc2ccccc2o1", "note": "[coumarin]", "values": [{"measurement": "liver necrosis", "setting": "DBA/2 strain mice", "value": "produce liver necrosis"}]}]}
